Legend:
[1] = system: Pseudomonas aeruginosa UI-18: Wild-type (PA-7); test: MIC determination (CLSI), strain PA-7; assay type: cell-based; settings: strain PA-7, unit assumed
Description: (§1) The in vitro antibacterial activity of compounds described in the Examples was evaluated by minimum inhibitory concentration (MIC) testing according to Clinical and Laboratory Standards Institute (CLSI, formerly NCCLS) guidelines. See: Clinical and Laboratory Standards Institute. Methods for Dilution Antimicrobial Susceptibility Tests for Bacteria that Grow Aerobically; Approved Standard-Seventh Edition. CLSI document M7-A7 [ISBN 1-56238-587-9]. Clinical and Laboratory Standards Institute, 940 West Valley Road, Suite 1400, Wayne, Pa. 19087-1898 USA, 2006; also Clinical and Laboratory Standards Institute. Performance Standards for Antimicrobial Susceptibility Testing; Eighteenth Informational Supplement. CLSI document M100-S18 [ISBN1-56238-653-0].Clinical and Laboratory Standards Institute.
(§2) The following bacterial strains were used in these MIC determinations:
1) Pseudomonas aeruginosa UI-18: Wild-type, labeled as PA-7 in Tables 4, and 5;

[2] = system: Escherichia coli EC-1: VOGEL, mouse virulent; test: MIC determination (CLSI), strain EC-1; assay type: cell-based; settings: strain EC-1, unit assumed
Description: as §1, §2
3) Escherichia coli EC-1: VOGEL, mouse virulent labeled as EC-1 in Tables 4 and 5;

[3] = generated in the same manner as in Table 4

Row | Structure (SMILES) | PA-7 (MIC) [1] [µg/mL] | EC-1 (MIC) [2] [µg/mL] | PA-7 (MIC) [1, 3] [µg/mL] | EC-1 (MIC) [2, 3] [µg/mL]
1 | Cc1cccc(-c2ccc(-c3ccn(CC[C@](C)(C(=O)NO)S(C)(=O)=O)c(=O)c3)cc2)n1 [Example 422, (2R)-N-hydroxy-2-methyl-4-{4-[4-(6-methylpyridin-2-yl)phenyl]-2-oxopyridin-1(2H)-yl}-2-(methylsulfonyl)butanamide] | 4 | 0.5 |  | 
2 | C[C@@](CCn1ccc(-c2ccc3cc(CO)ccc3c2)cc1=O)(C(=O)NO)S(C)(=O)=O [Example 315, (2R)-N-hydroxy-4-{4-[6-(hydroxymethyl)-2-naphthyl]-2-oxopyridin-1(2H)-yl}-2-methyl-2-(methylsulfonyl)butanamide] | 1 | 0.5 |  | 
3 | Cc1nnn(-c2ccc(-c3ccn(CC[C@](C)(C(=O)NO)S(C)(=O)=O)c(=O)c3)cc2)c1C [Example 416, (2R)-4-{4-[4-(4,5-dimethyl-1H-1,2,3-triazol-1-yl)phenyl]-2-oxopyridin-1(2H)-yl}-N-hydroxy-2-methyl-2-(methylsulfonyl)butanamide] | 32 | 64 |  | 
4 | COc1ccc(-c2ccn(CCC(C)(C(=O)NO)S(C)(=O)=O)c(=O)c2)c(OC)c1 (stereo not drawn) [Example 161, 4-[4-(2,4-dimethoxyphenyl)-2-oxopyridin-1(2H)-yl]-N-hydroxy-2-methyl-2-(methylsulfonyl)butanamide] |  |  | 8 | 8
5 | C[C@@](CCn1ccc(-c2cc(F)cc(F)c2)cc1=O)(C(=O)NO)S(C)(=O)=O [Example 335, (2R)-4-[4-(3,5-difluorophenyl)-2-oxopyridin-1(2H)-yl]-N-hydroxy-2-methyl-2-(methylsulfonyl)butanamide] | 2 | 1 |  | 
6 | CC(CCn1ccc(-c2ccc(OCCc3ccccn3)cc2)cc1=O)(C(=O)NO)S(C)(=O)=O (stereo not drawn) [Example 272, N-hydroxy-2-methyl-2-(methylsulfonyl)-4-{2-oxo-4-[4-(2-pyridin-2-ylethoxy)phenyl]pyridin-1(2H)-yl}butanamide] | 2 | 0.5 |  | 
7 | CC(CCn1ccc(-c2ccc(OCC3CCCCC3)nc2)cc1=O)(C(=O)NO)S(C)(=O)=O (stereo not drawn) [Example 181, 4-[6-(cyclohexylmethoxy)-2′-oxo-3,4′-bipyridin-1′(2′H)-yl]-N-hydroxy-2-methyl-2-(methylsulfonyl)butanamide] |  |  | 4 | 0.125
8 | Cc1cc(-c2ccn(CCC(C)(C(=O)NO)S(C)(=O)=O)c(=O)c2)ccn1 (stereo not drawn) [Example 209, N-hydroxy-2-methyl-4-(2′-methyl-2-oxo-4,4′-bipyridin-1(2H)-yl)-2-(methylsulfonyl)butanamide] | 32 | 64 |  | 
9 | Cn1c(=O)sc2cc(-c3ccn(CC[C@](C)(C(=O)NO)S(C)(=O)=O)c(=O)c3)ccc21 [Example 483] | 8 | 8 |  | 
10 | CC(CCn1ccc(-c2ccc(OCCCO)c(F)c2)cc1=O)(C(=O)NO)S(C)(=O)=O (stereo not drawn) [Example 247, 4-{4-[3-fluoro-4-(3-hydroxypropoxy)phenyl]-2-oxopyridin-1(2H)-yl}-N-hydroxy-2-methyl-2-(methylsulfonyl)butanamide] | 8 | 4 |  | 
11 | CCOc1ccc(-c2ccn(CC[C@](C)(C(=O)NO)S(C)(=O)=O)c(=O)c2)cc1C#N [Example 479] | 16 | 64 |  | 
12 | Cc1nncn1-c1ccc(-c2ccn(CC[C@](C)(C(=O)NO)S(C)(=O)=O)c(=O)c2)cc1 [Example 383, (2R)-N-hydroxy-2-methyl-2-(methylsulfonyl)-4-{4-[4-(3-methyl-4H-1,2,4-triazol-4-yl)phenyl]-2-oxopyridin-1(2H)-yl}butanamide] | > 64 | > 64 |  | 
13 | CC(CCn1ccc(-c2ccc(OCCO)cc2F)cc1=O)(C(=O)NO)S(C)(=O)=O (stereo not drawn) [Example 85, 4-{4-[2-fluoro-4-(2-hydroxyethoxy)phenyl]-2-oxopyridin-1(2H)-yl}-N-hydroxy-2-methyl-2-(methylsulfonyl)butanamide] |  |  | 16 | 16
14 | CC(CCn1ccc(-c2ccc(OCCc3cccnc3)cc2)cc1=O)(C(=O)NO)S(C)(=O)=O (stereo not drawn) [Example 271, N-hydroxy-2-methyl-2-(methylsulfonyl)-4-{2-oxo-4-[4-(2-pyridin-3-ylethoxy)phenyl]pyridin-1(2H)-yl}butanamide] | 2 | 0.25 |  | 
15 | CC(CCn1ccc(-c2cccc(N)c2)cc1=O)(C(=O)NO)S(C)(=O)=O (stereo not drawn) [Example 110, 4-[4-(3-aminophenyl)-2-oxopyridin-1(2H)-yl]-N-hydroxy-2-methyl-2-(methylsulfonyl)butanamide] |  |  | 64 | > 64
16 | Cc1nnnn1-c1ccc(-c2ccn(CC[C@](C)(C(=O)NO)S(C)(=O)=O)c(=O)c2)cc1 [Example 378, (2R)-N-hydroxy-2-methyl-2-(methylsulfonyl)-4-{4-[4-(5-methyl-1H-tetrazol-1-yl)phenyl]-2-oxopyridin-1(2H)-yl}butanamide] | 64 | 32 |  | 
17 | CC(CCn1ccc(-c2ccc(OCCCN3CCCC3)cc2)cc1=O)(C(=O)NO)S(C)(=O)=O (stereo not drawn) [Example 78] |  |  | > 64 | > 64
18 | CC(CCn1ccc(-c2ccc(CC#N)cc2)cc1=O)(C(=O)NO)S(C)(=O)=O (stereo not drawn) [Example 129, 4-{4-[4-(cyanomethyl)phenyl]-2-oxopyridin-1(2H)-yl}-N-hydroxy-2-methyl-2-(methylsulfonyl)butanamide] |  |  | 32 | 2
19 | CC(CCn1ccc(-c2cc3nccc(Cl)c3s2)cc1=O)(C(=O)NO)S(C)(=O)=O (stereo not drawn) [Example 128, 4-[4-(7-chlorothieno[3,2-b]pyridin-2-yl)-2-oxopyridin-1(2H)-yl]-N-hydroxy-2-methyl-2-(methylsulfonyl)butanamide] |  |  | 64 | 32
20 | Cc1c(-c2ccc(Cl)cc2F)ccn(CC[C@](C)(C(=O)NO)S(C)(=O)=O)c1=O [Example 394, (2R)-4-[4-(4-chloro-2-fluorophenyl)-3-methyl-2-oxopyridin-1(2H)-yl]-N-hydroxy-2-methyl-2-(methylsulfonyl)butanamide] | 1 | 1 |  | 
21 | COc1ccc(-c2ccn(CC[C@](C)(C(=O)NO)S(C)(=O)=O)c(=O)c2C)c(F)c1 [Example 393, (2R)-4-[4-(2-fluoro-4-methoxyphenyl)-3-methyl-2-oxopyridin-1(2H)-yl]-N-hydroxy-2-methyl-2-(methylsulfonyl)butanamide] | 1 | 0.5 |  | 
22 | Cc1c(F)cccc1-c1ccn(CCC(C)(C(=O)NO)S(C)(=O)=O)c(=O)c1 (stereo not drawn) [Example 153, 4-[4-(3-fluoro-2-methylphenyl)-2-oxopyridin-1(2H)-yl]-N-hydroxy-2-methyl-2-(methylsulfonyl)butanamide] |  |  | 8 | 32
23 | Cc1cc(F)cc(-c2ccn(CCC(C)(C(=O)NO)S(C)(=O)=O)c(=O)c2)c1 (stereo not drawn) [Example 112, 4-[4-(3-fluoro-5-methylphenyl)-2-oxopyridin-1(2H)-yl]-N-hydroxy-2-methyl-2-(methylsulfonyl)butanamide] |  |  | 4 | 4
24 | C[C@@](CCn1ccc(-c2ccc(CCCO)c(F)c2)cc1=O)(C(=O)NO)S(C)(=O)=O [Example 344, (2R)-4-{4-[3-fluoro-4-(3-hydroxypropyl)phenyl]-2-oxopyridin-1(2H)-yl}-N-hydroxy-2-methyl-2-(methylsulfonyl)butanamide] | 2 | 4 |  | 
25 | COc1ccc2cc(-c3ccn(CC[C@](C)(C(=O)NO)S(C)(=O)=O)c(=O)c3)ccc2n1 [Example 328, (2R)-N-hydroxy-4-[4-(2-methoxyquinolin-6-yl)-2-oxopyridin-1(2H)-yl]-2-methyl-2-(methylsulfonyl)butanamide] | 1 | 1 |  | 
26 | CCOc1ncc(-c2ccn(CC[C@](C)(C(=O)NO)S(C)(=O)=O)c(=O)c2)cn1 [Example 404, (2R)-4-[4-(2-ethoxypyrimidin-5-yl)-2-oxopyridin-1(2H)-yl]-N-hydroxy-2-methyl-2-(methylsulfonyl)butanamide] | > 64 | > 64 |  | 
27 | CCOc1ccc(Cl)cc1-c1ccn(CCC(C)(C(=O)NO)S(C)(=O)=O)c(=O)c1 (stereo not drawn) [Example 105, 4-[4-(5-chloro-2-ethoxyphenyl)-2-oxopyridin-1(2H)-yl]-N-hydroxy-2-methyl-2-(methylsulfonyl)butanamide] |  |  | > 64 | > 64
28 | Cc1ccc(-c2ccn(CCC(C)(C(=O)NO)S(C)(=O)=O)c(=O)c2)cc1 (stereo not drawn) [Example 190, N-hydroxy-2-methyl-4-[4-(4-methylphenyl)-2-oxopyridin-1(2H)-yl]-2-(methylsulfonyl)butanamide] | 1 | 1 |  | 
29 | CC(CCn1ccc(-c2ccc3c(c2)CCO3)cc1=O)(C(=O)NO)S(C)(=O)=O (stereo not drawn) [Example 164, 4-[4-(2,3-dihydro-1-benzofuran-5-yl)-2-oxopyridin-1(2H)-yl]-N-hydroxy-2-methyl-2-(methylsulfonyl)butanamide] |  |  | 32 | 8
30 | CC(CCn1ccc(-c2ccc3cc(O)ccc3c2)cc1=O)(C(=O)NO)S(C)(=O)=O (stereo not drawn) [Example 258, N-hydroxy-4-[4-(6-hydroxy-2-naphthyl)-2-oxopyridin-1(2H)-yl]-2-methyl-2-(methylsulfonyl)butanamide] | 2 | 1 |  | 
